Earlier results on 79 compounds are cited in article PMC6311893, “Computational prediction of plasma protein binding of cyclic peptides from small molecule experimental data using sparse modeling techniques” (BMC Bioinformatics, 2018).

Where two headings read alike, the source gives them in different places.

This data set deals with plasma protein. Conditions: cited from earlier work.
[1] abbreviates: fraction bound to plasma protein, small molecule dataset, sheet 1-SM, ref Ingle et al.
[2] abbreviates: fraction bound to plasma protein, small molecule dataset, sheet 1-SM (Set Dte = test, Dtr = training), ref Ingle et al.
The mark [3] stands for this setting: fraction bound to plasma protein, small molecule dataset, sheet 1-SM, Set Dtr, ref Ingle et al.

Take `CC(C)(Oc1ccccc1)C(=O)NC1C(=O)N2C1SC(C)(C)C2C(=O)O` (stereo not shown) [penicillin49]: the “PPB (fb)” value under setting [1] was 0.92.

`O=C(O)CCCc1ccc(N(CCCl)CCCl)cc1` [Chlorambucil]: the “PPB (fb)” value (plasma) is given as 0.99.

`O=C(O)c1cn(-c2ccc(C(F)(F)F)cc2)c2cc(N3CCNCC3)c(F)cc2c1=O` [3c(p-CF3)]: the “PPB (fb)” value under setting [2] was 0.42.

Turning to `CCn1nc(C(=O)O)c(=O)c2cc3c(cc21)OCO3` [cinoxacin], the “PPB (fb)” value under setting [2] was 0.64.

As to `CN(c1nccc(=O)[nH]1)C1CCN(c2nc3ccccc3n2Cc2ccc(F)cc2)CC1` [mizolastine], under setting [1], the “PPB (fb)” value was 0.98.

On to `CC(C)n1c(/C=C/C(O)CC(O)CC(=O)O)c(-c2ccc(F)cc2)c2ccccc21` (stereo not shown) [Fluvastatin], for which the “PPB (fb)” value under setting [3] is on record as 0.99.

For Rifabutin, the “PPB (fb)” value (plasma) is given as 0.76.

For the compound `CN(C)CCc1c[nH]c2ccc(CS(=O)(=O)N3CCCC3)cc12` [Almotriptan], the “PPB (fb)” value under setting [3] is reported as 0.37.

With `O=C1Nc2ccc(Cl)cc2[C@@](C#CC2CC2)(C(F)(F)F)O1` [efavirenz], the “PPB (fb)” value under setting [1] is recorded as 0.99.

Consider `Nc1ccn([C@H]2CC[C@@H](CO)O2)c(=O)n1` [zalcitabine], for which the “PPB (fb)” value under setting [3] is 0.03.

With `C#C[C@]1(O)CC[C@H]2[C@@H]3CCc4cc(OC)ccc4[C@H]3CC[C@@]21C` [mestranol], the “PPB (fb)” value under setting [1] is 0.98.

For `CC(=O)C1(O)CCC2C3CCC4=CC(=O)CCC4(C)C3CCC21C` (stereo not shown) [17-hydroxyprogesterone], the “PPB (fb)” value (plasma) was 0.85.

On to `COc1ccc2c(c1)C(=O)N(CCc1ccc(S(=O)(=O)NC(=O)NC3CCCCC3)cc1)C(=O)C2(C)C` [gliquidone], for which the “PPB (fb)” value under setting [1] is given as 0.99.

For `CN1C(=O)OC(C)(C)C1=O` [trimethadione], the “PPB (fb)” value under setting [3] is 0.

With `Nc1nc(=O)[nH]cc1F` [Flucytosine], the “PPB (fb)” value under setting [2] is reported as 0.02.

As to `O=C(c1ccc(OCCN2CCCCC2)cc1)c1c(-c2ccc(O)cc2)sc2cc(O)ccc12` [raloxifene], under setting [1], the “PPB (fb)” value was 0.97.

For `O=C(O)[C@H]1/C(=C/CO)O[C@@H]2CC(=O)N21` [Clavulanic Acid], under setting [3], the “PPB (fb)” value is given as 0.09.

Turning to `CCC[C@@H]1C[C@@H](C(=O)N[C@@H]([C@H]2O[C@H](SC)[C@H](O)[C@@H](O)[C@H]2O)[C@@H](C)O)N(C)C1` [Lincomycin], the “PPB (fb)” value under setting [3] is reported as 0.76.

In the case of `Cc1ncc2c(c1O)COC2c1ccc(Cl)cc1` (stereo not shown) [cicletanine], under setting [2], the “PPB (fb)” value is 0.93.

Take ceftibuten: for the setting “plasma”, the “PPB (fb)” value is reported as 0.65.

In the case of `CN(CCOc1ccc(NS(C)(=O)=O)cc1)CCc1ccc(NS(C)(=O)=O)cc1` [Dofetilide], the “PPB (fb)” value under setting [3] was 0.64.

Turning to `CN1C(=O)CC(c2ccccc2)C1=O` (stereo not shown) [phensuximide], the “PPB (fb)” value under setting [1] is given as 0.07.

For the compound `NC1CCN(c2c(F)cc3c(=O)c(C(=O)O)cn(C4CC4)c3c2Cl)C1` (stereo not shown) [Clinafloxacin], under setting [2], the “PPB (fb)” value is 0.04.

Take `C=C(Br)CC1(C(C)C)C(=O)NC(=O)NC1=O` [ibomal]: the “PPB (fb)” value (plasma) is 0.34.

On to `CCN(CC)C(=O)N1CCN(C)CC1` [diethylcarbamazine], for which the “PPB (fb)” value under setting [2] is given as 0.

Take `CC1(C)SC2C(NC(=O)C(Cl)c3ccc(Cl)c(Cl)c3)C(=O)N2C1C(=O)O` (stereo not shown) [penicillin25]: the “PPB (fb)” value under setting [2] was 0.97.

For the compound `CN1CCN(CCCN2c3ccccc3Sc3ccccc32)CC1` [perazine], the “PPB (fb)” value under setting [1] is 0.95.

In the case of `CNS(=O)(=O)Cc1ccc2[nH]cc(CCN(C)C)c2c1` [Sumatriptan], under setting [1], the “PPB (fb)” value is listed as 0.17.

On to `COc1ccc2cc(CCC(C)=O)ccc2c1` [nabumetone], for which the “PPB (fb)” value under setting [1] is 0.99.

As to `Cc1noc(NS(=O)(=O)c2ccc(N)cc2)c1C` [Sulfisoxazole], the “PPB (fb)” value under setting [1] was 0.92.

With `CC(C)(C)NCC(O)c1cc(Cl)c(N)c(Cl)c1` (stereo not shown) [clenbuterol], the “PPB (fb)” value (plasma) is reported as 0.5.

In the case of `CN1CC[C@H](c2c(O)cc(O)c3c(=O)cc(-c4ccccc4Cl)oc23)[C@H](O)C1` [Flavopiridol], the “PPB (fb)” value under setting [3] was 0.94.

On to `CCC1(c2ccccc2)C(=O)NC(=O)N(C)C1=O` (stereo not shown) [methylphenobarbital], for which, under “plasma”, the “PPB (fb)” value is given as 0.5.

In the case of Nimodipine, under “plasma”, the “PPB (fb)” value is 0.98.

Turning to `CN1CCN(CCCCN2C(=O)CN(/N=C/c3ccc(-c4ccc(Cl)cc4)o3)C2=O)CC1` [Azimilide], the “PPB (fb)” value under setting [3] is listed as 0.94.

For the compound `Nc1c2c(nc3ccccc13)CCCC2` [Tacrine], for the setting “plasma”, the “PPB (fb)” value is 0.65.

As for `CCCN(CC)C(CC)C(=O)Nc1c(C)cccc1C` (stereo not shown) [etidocaine], under setting [1], the “PPB (fb)” value is 0.94.

On to `Cc1onc(-c2ccccc2)c1C(=O)N[C@@H]1C(=O)N2[C@@H]1SC(C)(C)[C@@H]2C(=O)O` [Oxacillin], for which the “PPB (fb)” value under setting [3] is 0.92.

On to `O=c1[nH]c2ccccc2n1C1CCN(CCCC(c2ccc(F)cc2)c2ccc(F)cc2)CC1` [pimozide], for which, under setting [2], the “PPB (fb)” value is reported as 0.95.

For the compound `Cn1nnc2c(C(N)=O)ncn2c1=O` [temozolomide], the “PPB (fb)” value under setting [1] was 0.15.

On to `C[C@H]1[C@H](NC(=O)/C(=N\OC(C)(C)C(=O)O)c2csc(N)n2)C(=O)N1S(=O)(=O)O` [Aztreonam], for which the “PPB (fb)” value under setting [3] is on record as 0.58.

For `COC(C(=O)NC1C(=O)N2C1SC(C)(C)C2C(=O)O)c1cccc([N+](=O)[O-])c1` (stereo not shown) [penicillin46], the “PPB (fb)” value under setting [1] is 0.6.

Consider `Cc1ccc(NC(=O)c2ccc(CN3CCNCC3)cc2)cc1Nc1nccc(-c2cccnc2)n1` [N-desmethyl-imatinib], for which the “PPB (fb)” value under setting [2] is 0.7.

Regarding `O=C(O)/C=C/c1ccc(O)cc1` [p-coumaric acid], the “PPB (fb)” value under setting [1] is recorded as 0.65.

As for `NC(=O)N1c2ccccc2CC(O)c2ccccc21` (stereo not shown) [10-hydroxycarbazepine], under setting [2], the “PPB (fb)” value is listed as 0.62.

Turning to `CCc1cccc2c3c([nH]c12)C(CC)(CC(=O)O)OCC3` (stereo not shown) [etodolac], under setting [1], the “PPB (fb)” value is reported as 0.99.

Turning to `Cc1cc2c(OCC(CNC(C)(C)C)OC(=O)c3ccccc3)cccc2[nH]1` (stereo not shown) [bopindolol], the “PPB (fb)” value under setting [2] is 0.65.

As for `O=C(O)Cc1ccccc1Nc1c(Cl)cccc1Cl` [Diclofenac], the “PPB (fb)” value under setting [2] was 0.995.

Consider `O=C(OCC(O)CO)c1ccccc1Nc1ccnc2c(C(F)(F)F)cccc12` (stereo not shown) [floctafenine], for which, under setting [1], the “PPB (fb)” value is reported as 0.85.

With `CC(C(=O)O)c1ccc2c(c1)[nH]c1ccc(Cl)cc12` (stereo not shown) [Carprofen], the “PPB (fb)” value under setting [2] is given as 0.99.

For the compound `CCN(CC)CCCC(C)Nc1ccnc2cc(Cl)ccc12` (stereo not shown) [Chloroquine], the “PPB (fb)” value under setting [3] is 0.58.

Turning to `Cc1cccc(Nc2ccccc2C(=O)O)c1C` [mefenamic acid], the “PPB (fb)” value under setting [1] is given as 0.99.

As to `CNC(=C[N+](=O)[O-])NCCSCc1ccc(CN(C)C)o1` [Ranitidine], the “PPB (fb)” value under setting [2] is recorded as 0.1.

Regarding `CNC(=O)c1c(I)c(NC(C)=O)c(I)c(C(=O)O)c1I` [Iothalamic acid (Iothalamate)], the “PPB (fb)” value under setting [2] is reported as 0.02.

Consider `COc1ccc(/C=C\c2cc(OC)c(OC)c(OC)c2)cc1OP(=O)(O)O` [Combretastatin A4 phosphate], for which the “PPB (fb)” value is listed as 0.77.

Take `COc1ccccc1Oc1c(NS(=O)(=O)c2ccc(C(C)C)cn2)nc(-c2ccnc(-c3nnn[nH]3)c2)nc1OCCO` [Tezosentan]: the “PPB (fb)” value under setting [1] is given as 0.99.

In the case of `CN[C@@H]1[C@@H](O)[C@@H](O[C@@H]2[C@@H](O)[C@H](O[C@H]3OC(CN)=CC[C@H]3N)[C@@H](N)C[C@H]2N)OC[C@]1(C)O` [Sisomicin], the “PPB (fb)” value under setting [1] is 0.85.

For the compound `Nc1ccc(S(=O)(=O)Nc2ccc(Cl)nn2)cc1` [sulfachlorpyridazine], the “PPB (fb)” value under setting [1] is 0.97.

`CC(C)(C)NC[C@H](O)COc1nsnc1N1CCOCC1` [Timolol]: the “PPB (fb)” value under setting [1] is recorded as 0.1.

As to `Cc1ncc(CO)c(CO)c1O` [pyridoxine], under setting [1], the “PPB (fb)” value was 0.

As for `CCN(CC)C(=O)Nc1ccc(OCC(O)CNC(C)(C)C)c(C(C)=O)c1` (stereo not shown) [celiprolol], the “PPB (fb)” value under setting [2] is 0.25.

As for `C#C[C@]1(O)CC[C@H]2[C@@H]3CCC4=CC(=O)CC[C@@H]4[C@H]3CC[C@@]21C` [norethisterone], the “PPB (fb)” value under setting [1] was 0.8.

On to `CCOc1c(C)nc2ccccc2c1C(=O)NC1C(=O)N2C1SC(C)(C)C2C(=O)O` (stereo not shown) [penicillin79], for which the “PPB (fb)” value under setting [1] was 0.74.

`CCC(=O)O[C@@H](O[P@](=O)(CCCCc1ccccc1)CC(=O)N1C[C@H](C2CCCCC2)C[C@H]1C(=O)O)C(C)C` [fosinopril]: the “PPB (fb)” value under setting [1] is on record as 0.95.

On to `Sc1ncnc2nc[nH]c12` [Mercaptopurine], for which, under setting [2], the “PPB (fb)” value is recorded as 0.17.

Turning to `NS(=O)(=O)c1cc(C2(O)NC(=O)c3ccccc32)ccc1Cl` (stereo not shown) [Chlorthalidone], under setting [3], the “PPB (fb)” value is recorded as 0.75.

With `CC(=O)[C@H]1CC[C@H]2[C@@H]3C=CC4=CC(=O)CC[C@@]4(C)[C@@H]3CC[C@]12C` [dydrogesterone], the “PPB (fb)” value (plasma) was 0.97.

Turning to `COc1c(C)nc2ccccc2c1C(=O)NC1C(=O)N2C1SC(C)(C)C2C(=O)O` (stereo not shown) [penicillin77], the “PPB (fb)” value under setting [1] is recorded as 0.62.

With nitazoxanide, the “PPB (fb)” value (plasma) is reported as 0.99.

Regarding `O=C(O)c1ccc(O)c(O)c1` [protocatechuic acid], the “PPB (fb)” value under setting [1] is on record as 0.21.

Turning to `C#C[C@]1(O)CC[C@H]2[C@@H]3CCC4=CCCC[C@@H]4[C@H]3CC[C@@]21C` [lynestrenol], the “PPB (fb)” value under setting [1] is 0.96.

Regarding Tolcapone, the “PPB (fb)” value (plasma) was 0.99.

Turning to `Oc1ccc2c(c1)[C@@]13CCCC[C@@]1(O)[C@@H](C2)N(CC1CCC1)CC3` [Butorphanol], the “PPB (fb)” value (plasma) is 0.81.

Take `CCCn1c(=O)[nH]c(=O)c2[nH]cnc21` [Enprofylline]: the “PPB (fb)” value under setting [3] is 0.45.

For the compound `CN1CC[C@]23CCCC[C@H]2[C@H]1Cc1ccc(O)cc13` [levorphanol], under “plasma”, the “PPB (fb)” value is given as 0.4.

Regarding Cefmetazole, the “PPB (fb)” value (plasma) was 0.77.

With `CN(C)Cc1nnc2n1-c1ccc(Cl)cc1C(c1ccccc1)=NC2` [Adinazolam], the “PPB (fb)” value (plasma) is recorded as 0.69.

For the compound `COc1cc2c(cc1OC)CN(C(=O)[C@H](C)N[C@@H](CCc1ccccc1)C(=O)O)[C@H](C(=O)O)C2` [moexiprilat], under setting [1], the “PPB (fb)” value is reported as 0.5.

For `COc1cccc(-n2cc(C(=O)O)c(=O)c3cc(F)c(N4CCN(C)CC4)cc32)c1` [5ba(m-OCH3__N-CH3)], the “PPB (fb)” value under setting [2] is recorded as 0.54.
